According to patent publication US7365095B2, “Chromane and chromene derivatives and uses thereof” (Wyeth, priority 2005, dated 2008):
Structures can show the parent of a compound that is named as a salt. Where two headings read alike, the source gives them in different places.

Experiments:
[1] = biological target: T1, human 5-hydroxytryptamine-2C (h5-HT2C) receptor (Homo sapiens, UniProt P28335); assay: [125I]DOI binding to membranes of CHO cells expressing h5-HT2C receptor
T1 construct: expressed in transfected cells; host or cells: CHO (Chinese Hamster Ovary) cells; membrane preparation
T1 sequence (P28335 33-458): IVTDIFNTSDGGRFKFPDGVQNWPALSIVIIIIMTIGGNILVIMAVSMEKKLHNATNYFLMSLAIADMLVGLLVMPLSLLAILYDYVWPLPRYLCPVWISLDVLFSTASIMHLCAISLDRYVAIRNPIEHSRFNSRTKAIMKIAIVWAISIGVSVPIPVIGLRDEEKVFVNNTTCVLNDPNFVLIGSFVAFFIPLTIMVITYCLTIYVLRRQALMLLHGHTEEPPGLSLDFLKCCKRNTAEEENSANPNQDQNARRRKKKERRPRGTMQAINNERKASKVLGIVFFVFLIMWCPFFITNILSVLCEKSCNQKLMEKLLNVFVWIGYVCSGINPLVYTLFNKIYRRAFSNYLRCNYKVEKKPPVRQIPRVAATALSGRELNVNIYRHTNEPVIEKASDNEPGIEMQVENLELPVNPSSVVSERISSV

human 5-HT2C receptor = biological target: T2, human 5-HT2C receptor (Homo sapiens, UniProt P28335); assay: calcium mobilization (FLIPR) in CHO cells stably expressing the human 5-HT2C receptor; assay type: cell-based; settings: for Emax: CHO, read-out: 5-HT2C Function EMax (%); for EC50: calcium mobilization, read-out: 5-HT2C Function EC50
T2 sequence (P28335 33-458): T1 sequence (P28335 33-458)

[2] = read-out: 5-HT2C Binding Ki avg

| SMILES | Ki [1, 2] | Emax (human 5-HT2C receptor) | EC50 (human 5-HT2C receptor) | Kd ([1]; saturation binding with increasing concentrations of [125I] DOI, read-out: dissociation constant, KD) | Ki ([1]; reference compounds, 95% confidence interval in brackets, [125I]DOI displacement, read-out: Ki) |
| --- | --- | --- | --- | --- | --- |
| COc1ccccc1-c1cccc2c1O[C@@H](CN)CC2 [Compound 15, {[(2R)-8-(2-methoxyphenyl)-3,4-dihydro-2H-chromen-2-yl]methyl}amine hydrochloride] | ≤ 10 nM | 90% | < 50 nM | – | – |
| COc1ccccc1-c1cc(F)cc2c1O[C@@H](CN)CC2 [Compound 38, 1-[(2R)-6-fluoro-8-(2-methoxyphenyl)-3,4-dihydro-2H-chromen-2-yl]methanamine hydrochloride] | ≤ 10 nM | 80% | < 50 nM | – | – |
| CNCC1CCc2cccc(-c3ccccc3Cl)c2O1 (stereo not shown) [Compound 1, N-{[8-(2-chlorophenyl)-3,4-dihydro-2H-chromen-2-yl]methyl}-N-methylamine hydrochloride] | 10 to 50 nM | 80% | < 50 nM | – | – |
| CNCC1C=Cc2cc(F)cc(-c3ccccc3Cl)c2O1 (stereo not shown) [Compound 61, {[8-(2-chlorophenyl)-6-fluoro-2H-chromen-2-yl]methyl}methylamine hydrochloride] | ≤ 10 nM | 90% | < 50 nM | – | – |
| NC[C@@H]1CCc2cccc(-c3ccc(Cl)cc3Cl)c2O1 [Compound 29, {[(2S)-8-(2,4-dichlorophenyl)-3,4-dihydro-2H-chromen-2-yl]methyl}amine hydrochloride] | 10 to 50 nM | 80% | > 200 nM | – | – |
| NC[C@H]1CCc2cc(F)cc(-c3cccnc3)c2O1 [Compound 50, {[(2R)-6-fluoro-8-pyridin-3-yl-3,4-dihydro-2H-chromen-2-yl]methyl}amine hydrochloride] | 10 to 50 nM | 90% | < 50 nM | – | – |
| NC[C@H]1CCCc2cc(F)cc(-c3c(Cl)cccc3Cl)c2O1 [Compound 68, {[(2R)-9-(2,6-dichlorophenyl)-7-fluoro-2,3,4,5-tetrahydro-1-benzoxepin-2-yl]methyl}amine hydrochloride] | 10 to 50 nM | 80% | 50 to 200 nM | – | – |
| NC[C@H]1CCc2cc(F)cc(-c3ccccc3Cl)c2O1 [Compound 45, {[(2R)-8-(2-chlorophenyl)-6-fluoro-3,4-dihydro-2H-chromen-2-yl]methyl}amine hydrochloride] | ≤ 10 nM | 90% | < 50 nM | – | – |
| Cc1cc(Cl)ccc1-c1c(F)ccc2c1O[C@@H](CN)CC2 [Compound 72, ((2R)-8-(4-Chloro-2-methylphenyl)-7-fluorochroman-2-yl)methanamine hydrochloride] | ≤ 10 nM | – | – | – | – |
| CNC[C@H]1CCc2cccc(-c3ccccc3)c2O1 [Compound 5, N-methyl-N-{[(2R)-8-phenyl-3,4-dihydro-2H-chromen-2-yl]methyl}amine hydrochloride] | ≤ 10 nM | 90% | 50 to 200 nM | – | – |
| CNC[C@H]1CCc2cccc(-c3ccccc3OC)c2O1 [Compound 6, N-{[(2R)-8-(2-methoxyphenyl)-3,4-dihydro-2H-chromen-2-yl]methyl}-N-methylamine hydrochloride] | ≤ 10 nM | 90% | < 50 nM | – | – |
| CNC[C@@H]1CCc2cccc(-c3ccccc3C)c2O1 [Compound 25, N-methyl-1-[(2S)-8-(2-methylphenyl)-3,4-dihydro-2H-chromen-2-yl]methanamine hydrochloride] | 10 to 50 nM | 90% | > 200 nM | – | – |
| NC[C@H]1C=Cc2cc(F)cc(-c3ccccc3Cl)c2O1 [Compound 64, {[(2R)-8-(2-chlorophenyl)-6-fluoro-2H-chromen-2-yl]methyl}amine hydrochloride] | ≤ 10 nM | 90% | < 50 nM | – | – |
| NC[C@H]1CCc2ccc(F)c(-c3ccccc3Cl)c2O1 [Compound 71, ((2R)-8-(2-chlorophenyl)-7-fluorochroman-2-yl)methanamine hydrochloride] | ≤ 10 nM | – | – | – | – |
| NC[C@@H]1CCc2cccc(-c3cccnc3)c2O1 [Compound 34, {[(2S)-8-pyridin-3-yl-3,4-dihydro-2H-chromen-2-yl]methyl}amine hydrochloride] | > 50 nM | – | – | – | – |
| NC[C@H]1CCc2cc(F)cc(-c3ccc(Cl)cc3Cl)c2O1 [Compound 47, {[(2R)-8-(2,4-dichlorophenyl)-6-fluoro-3,4-dihydro-2H-chromen-2-yl]methyl}amine hydrochloride] | > 50 nM | 90% | 50 to 200 nM | – | – |
| NC[C@H]1CCCc2cccc(-c3c(Cl)cccc3Cl)c2O1 [Compound 67, {[(2R)-9-(2,6-dichlorophenyl)-2,3,4,5-tetrahydro-1-benzoxepin-2-yl]methyl}amine hydrochloride] | 10 to 50 nM | 80% | 50 to 200 nM | – | – |
| Cc1ccccc1-c1c(Cl)ccc2c1O[C@@H](CN)CC2 [Compound 69, ((2R)-7-Chloro-8-o-tolylchroman-2-yl)methanamine hydrochloride] | ≤ 10 nM | – | – | – | – |

| SMILES | Ki [1, 2] | Emax (human 5-HT2C receptor) | EC50 (human 5-HT2C receptor) | Kd ([1]; saturation binding with increasing concentrations of [125I] DOI, read-out: dissociation constant, KD) | Ki ([1]; reference compounds, 95% confidence interval in brackets, [125I]DOI displacement, read-out: Ki) |
| --- | --- | --- | --- | --- | --- |
| CNC[C@@H]1CCc2cccc(-c3cccnc3)c2O1 [Compound 26, N-methyl-1-[(2S)-8-pyridin-3-yl-3,4-dihydro-2H-chromen-2-yl]methanamine hydrochloride] | > 50 nM | – | – | – | – |
| CNC[C@H]1CCc2cc(F)cc(-c3ccccc3)c2O1 [Compound 42, {[(2R)-6-fluoro-8-phenyl-3,4-dihydro-2H-chromen-2-yl]methyl}methylamine hydrochloride] | ≤ 10 nM | 90% | 50 to 200 nM | – | – |
| NC[C@H]1CCc2cc(F)cc(-c3cc(Cl)ccc3Cl)c2O1 [Compound 46, {[(2R)-8-(2,5-dichlorophenyl)-6-fluoro-3,4-dihydro-2H-chromen-2-yl]methyl}amine hydrochloride] | 10 to 50 nM | 90% | > 200 nM | – | – |
| COc1ccccc1-c1cc(F)cc2c1O[C@@H](CN)C=C2 [Compound 65, {[(2R)-6-fluoro-8-(2-methoxyphenyl)-2H-chromen-2-yl]methyl}amine hydrochloride] | ≤ 10 nM | 80% | < 50 nM | – | – |
| CNC[C@H]1CCc2cc(F)cc(-c3ccccc3C)c2O1 [Compound 43, {[(2R)-6-fluoro-8-(2-methylphenyl)-3,4-dihydro-2H-chromen-2-yl]methyl}methylamine hydrochloride] | ≤ 10 nM | 90% | 50 to 200 nM | – | – |
| NCC1CCc2cc(F)cc(-c3ccccc3Cl)c2O1 (stereo not shown) [Compound 37, {[8-(2-chlorophenyl)-6-fluoro-3,4-dihydro-2H-chromen-2-yl]methyl}amine hydrochloride] | ≤ 10 nM | 100% | < 50 nM | – | – |
| CNC[C@H]1CCc2cccc(-c3ccccc3Cl)c2O1 [Compound 10, N-{[(2R)-8-(2-chlorophenyl)-3,4-dihydro-2H-chromen-2-yl]methyl}-N-methylamine hydrochloride] | ≤ 10 nM | 100% | < 50 nM | – | – |
| NC[C@H]1CCc2cccc(-c3ccccc3)c2O1 [Compound 14, {[(2R)-8-phenyl-3,4-dihydro-2H-chromen-2-yl]methyl}amine hydrochloride] | 10 to 50 nM | 80% | > 200 nM | – | – |
| NC[C@@H]1CCc2cc(F)cc(-c3ccccc3)c2O1 [Compound 52, {[(2S)-6-fluoro-8-phenyl-3,4-dihydro-2H-chromen-2-yl]methyl}amine hydrochloride] | > 50 nM | – | – | – | – |
| CNC[C@@H]1CCc2cccc(-c3ccccc3)c2O1 [Compound 22, N-methyl-1-[(2S)-8-phenyl-3,4-dihydro-2H-chromen-2-yl]methanamine hydrochloride] | > 50 nM | – | – | – | – |
| CNC[C@H]1CCc2cccc(-c3cccnc3)c2O1 [Compound 9, N-methyl-N-{[(2R)-8-pyridin-3-yl-3,4-dihydro-2H-chromen-2-yl]methyl}amine hydrochloride] | ≤ 10 nM | 100% | < 50 nM | – | – |
| CNC[C@@H]1CCc2cccc(-c3ccc(OC)cc3OC)c2O1 [Compound 24, {[(2S)-8-(2,4-dimethoxyphenyl)-3,4-dihydro-2H-chromen-2-yl]methyl}methylamine hydrochloride] | 10 to 50 nM | 100% | 50 to 200 nM | – | – |
| COc1cc(CC(C)N)c(OC)cc1I (stereo not shown) [[^125I] DOI, reference compound] | – | – | – | 0.4 nM | – |
| CNC[C@@H]1CCc2cccc(-c3ccccc3OC)c2O1 [Compound 23, {[(2S)-8-(2-methoxyphenyl)-3,4-dihydro-2H-chromen-2-yl]methyl}methylamine hydrochloride] | > 50 nM | – | – | – | – |
| COc1ccccc1-c1cccc2c1O[C@H](CN)CC2 [Compound 31, {[(2S)-8-(2-methoxyphenyl)-3,4-dihydro-2H-chromen-2-yl]methyl}amine hydrochloride] | > 50 nM | – | – | – | – |
| NC[C@@H]1CCc2cc(F)cc(-c3cccnc3)c2O1 [Compound 54, {[(2S)-6-fluoro-8-pyridin-3-yl-3,4-dihydro-2H-chromen-2-yl]methyl}amine hydrochloride] | > 50 nM | – | – | – | – |
| CSc1ccc2c(c1)C(N1CCN(C)CC1)Cc1ccccc1S2 (stereo not shown) [Methiothepin, reference compound] | – | – | – | – | 4.6 nM |
| NC[C@@H]1CCc2cccc(-c3ccccc3)c2O1 [Compound 30, {[(2S)-8-phenyl-3,4-dihydro-2H-chromen-2-yl]methyl}amine hydrochloride] | > 50 nM | – | – | – | – |
